Assay results published in patent US8846066B2, “Methods and related compositions for reduction of fat and skin tightening” (The Regents of the University of California, priority 2004, dated 2014).
Values joined by “and” are separate entries in the source; they are usually repeats but may differ in a detail not shown here. Equal entries are not always repeated.

Legend:
[1] = test system: immortalized melanocyte cell lines; experiment: Killing by DC after pre-incubation with human lipoma fat, series of cell lines; type: cell-based; conditions: 0.1% DC pre-incubated with human lipoma fat
Experimental: (§1) The experiment was performed on a series of immortalized melanocyte cell lines. Resected human lipomas were ground up, and DC-containing media was mixed with the human fat and agitated for 24 hours. The material was centrifuged to pellet insoluble contents. The supernatants were then added on top of cultured melanocytes. Control was the identical DC-containing media not exposed to the fat chunks. Also, fat alone (no media) was added as a control.
But it is evident in this experiment that the presence of the fat limits the killing properties of DC, may be by direct inhibition (like PC) or by sequestration (i.e., into the fat pellet). This can further explain the observation that injection of DC into fat spares the surrounding tissues.

fat deposits = experiment: Injection of deoxycholate into facial fat deposits of an HIV lipodystrophy patient; type: in vivo, human; conditions: 1% deoxycholate, 1 month follow up, both sides
Experimental: An HIV lipodystrophy patient with symmetrical fat deposits in their face just vental of their master muscle (sort of in their cheeks, like acorns in the mouth of a chipmunk) was injected with 1% deoxycholate. At 1 month follow up, there was a 50% apparent reduction in deposit volume on both sides.

lipomas [2] = experiment: Human lipoma study with sodium deoxycholate (Example 10); type: in vivo
Experimental: Six patients having 12 lipomas were injected with sodium deoxycholate (DC) solutions over a period of six months. […] Measurements were made by physical measurements and ultrasound imaging.

SKmel28 = experiment: Killing by DC after pre-incubation with human lipoma fat, SKmel28; type: cell-based
Experimental: as §1

[3] = test system: Melanocytes (A375P melanoma cell line); experiment: MTS survival of melanocytes after DC with or without 1% PC; type: cell-based; conditions: 30 min; for Melanocytes surviving in DC only: MTS OD 490 nm, single wells; for Average (DC only): mean MTS OD 490 nm
Experimental: Melanocytes in melanocyte media on a 96-well dish were differentiated at 37° C. in a humidified, 5% CO2 incubator for a week. Media was aspirated and washed with 1×PBS once. Cells were treated with different concentrations of DC (from 0 to 0.5%) with or without 1% PC in 1×PBS. Each treatment was done in triplicates (Table 4). The plates were incubated at 37° C. in a humidified, 5% CO2 incubator for 30 min. The incubated plates were aspirated and washed with 1×PBS.
10 mL of MTS (3-(4,5-dimethyl-2-yl)-5-(3-carboxymethoxyphenyl)-2-(4-sulfophenyl)-2H-tetrazolium, inner salt) assay solution was prepared (mixed 40 uL MTS (Promega, Madison Wis.) […]). 100 ul of MTS solution was added to each well of the plates. The plates were incubated at 37° C. incubator (non-hunified) for 120 min. OD was taken with spectrophotometer at 490 nm.
FIG. 7 illustrates the survival of melanocytes in sodium deoxycholate solution and sodium deoxycholate with 1% phosphatidylcholine solution. A375P is a melanoma cell line (P represents poorly metastatic). On y-axis, 1 represents 100% survival when no DC is added. All % concentrations are w/v %. […] The addition of sodium deoxycholate with 1% phosphatidylcholine solution increases the LD50 by ˜5-6 fold.

A375M = experiment: Killing by DC after pre-incubation with human lipoma fat, A375M; type: cell-based
Experimental: as §1

WM266 = experiment: Killing by DC after pre-incubation with human lipoma fat, WM266; type: cell-based
Experimental: as §1

lipomas [4] = experiment: Injection of DC solutions into lipomas of patients (Example 4); type: in vivo, human
Experimental: Patients having lipomas, benign, isolated collections of adipose tissue, were injected with sodium deoxycholate (DC) solutions without phosphatidylcholine directly into the lipoma. […] A lipoma from one patient, injected with 1% DC, was excised after treatment and pathological and histological analysis performed. Within the excised lipoma, necrosis is visible grossly (FIG. 6a) with a well demarcated area of hemorrhage and necrosis on the lateral edge extending into the middle of the lipoma fat which contrasts with the normal lipoma fat which is lighter in color.

[5] = test system: porcine skin (epidermis, dermis, subcutaneous tissue, muscle); experiment: Histology of full thickness porcine skin after injection; conditions: 0.5 mL stock reagent injected, one hour at 37° C., H&E
Experimental: Histology was performed by injecting stock reagent solutions (0.5 mL) into full thickness porcine skin at various levels (epidermis, dermis, and subcutaneous tissue) with 1.0 mL syringes and 30-gauge, 0.5 inch needles. Needle depth was visualized along the margin of the porcine tissue with the intent of saturating the target tissue. One hour after incubation with PBS at 37° C., multiple 5.0 mm biopsy specimens were obtained from the injected sites, each condition performed in triplicate. Tissue was fixed in formaldehyde, paraffin-embedded, and stained with hematoxylin-eosin. Specimens were evaluated by a board-certified dermatopathologist who was blinded to the treatment protocol.

[6] = Lipoma 1, pre-treatment size 1 cm, 1 treatment
[7] = Lipoma 4, pre-treatment size 4 × 3.5 cm, 4 treatments
[8] = Lipoma 5, pre-treatment size 2 × 1.8 cm, 4 treatments
[9] = Lipoma 6, pre-treatment size 2.8 cm, 1 treatment
[10] = Lipoma 7, pre-treatment size 3 × 2 cm, 2 treatments
[11] = Lipoma 8, pre-treatment size 1 cm, 2 treatments
[12] = Lipoma 10, pre-treatment size 2 cm, 2 treatments
[13] = Lipoma 12, pre-treatment size 1 cm, 1 treatment
[14] = Control = 1.000, DC 0.1% media not exposed to fat
[15] = Control = 1.000, DC 0.1% media pre-incubated with human lipoma fat
[16] = DC 0.1% media not exposed to fat
[17] = single wells, DC 0.1% media not exposed to fat
[18] = single wells, supernatant of DC 0.1% media agitated 24 hours with human lipoma fat
[19] = supernatant of DC 0.1% media agitated 24 hours with human lipoma fat

C[C@H](CCC(=O)[O-])[C@H]1CC[C@H]2[C@@H]3CC[C@@H]4C[C@H](O)CC[C@]4(C)[C@H]3C[C@H](O)[C@]12C.[Na+] [DC, sodium deoxycholate]
effect of pre-incubation with fat on killing [1]: appears to reduce killing | apparent reduction in deposit volume (fat deposits): 50% | Change in volume (%) (lipomas [2]; [6]): −100% | Post-treatment size (lipomas [2]; [6]): 0 | Change in volume (%) (lipomas [2]; Lipoma 3, pre-treatment size 2 × 2.5 cm, 3 treatments): 84% | Change in volume (%) (lipomas [2]; [7]): 84% | Post-treatment size (lipomas [2]; [7]): 2 | Change in volume (%) (lipomas [2]; [8]): 92% | Post-treatment size (lipomas [2]; [8]): 1.3 | Change in volume (%) (lipomas [2]; [9]): 99% | Post-treatment size (lipomas [2]; [9]): 0.5 | Change in volume (%) (lipomas [2]; [10]): 97% | Post-treatment size (lipomas [2]; [10]): 0.8 | Change in volume (%) (lipomas [2]; [11]): 100% | Post-treatment size (lipomas [2]; [11]): 0 | Change in volume (%) (lipomas [2]; Lipoma 9, pre-treatment size 2 × 1 cm, 2 treatments): 67% | Change in volume (%) (lipomas [2]; [12]): 73% | Post-treatment size (lipomas [2]; [12]): 1.3 | Change in volume (%) (lipomas [2]; Lipoma 11, pre-treatment size 2 cm, 1 treatment): 79% | Change in volume (%) (lipomas [2]; [13]): 50% | Post-treatment size (lipomas [2]; [13]): 0.8 | size of injected lipomas (lipomas [2]; six patients, 12 lipomas, after at least one treatment, six months): reduced in size | Percentage, DC 0.1% (SKmel28; [14]): 0.098 | Percentage, DC 0.1% + fat (SKmel28; [15]): 0.485 | Average, DC 0.1% (SKmel28; [16]): 0.060 | Actual, DC 0.1% (SKmel28; [17]): 0.061 and 0.060 | SKmel28 (readings), DC 0.1% (SKmel28; [17]): 0.061 and 0.060 | Actual, DC 0.1% + fat (SKmel28; [18]): 0.290 and 0.304 and 0.302 | SKmel28 (readings), DC 0.1% + fat (SKmel28; [18]): 0.290 and 0.304 and 0.302 | Average, DC 0.1% + fat (SKmel28; [19]): 0.299 | Melanocytes surviving in DC only ([3]; DC 0.001 (w/v %)): 0.158 and 0.148 and 0.16 | Melanocytes surviving in DC only ([3]; DC 0.005 (w/v %)): 0.128 and 0.109 and 0.103 | Melanocytes surviving in DC only ([3]; DC 0.01 (w/v %)): 0.124 and 0.107 and 0.106 | Melanocytes surviving in DC only ([3]; DC 0.05 (w/v %)): 0.056 and 0.038 and 0.048 | Melanocytes surviving in DC only ([3]; DC 0.1 (w/v %)): 0.009 and 0.014 and 0.016 | Average (DC only) ([3]; DC 0.001 (w/v %)): 0.1553 | Average (DC only) ([3]; DC 0.005 (w/v %)): 0.1133 | Average (DC only) ([3]; DC 0.01 (w/v %)): 0.1123 | Average (DC only) ([3]; DC 0.05 (w/v %)): 0.04733 | Average (DC only) ([3]; DC 0.1 (w/v %)): 0.013 | Average (DC only) ([3]; DC 0.5 (w/v %)): 0.004 | LD50 (concentration at which 50% of the cells are dead) ([3]; melanocyte cell line, w/v %): around 0.04% | Percentage, DC 0.1% (A375M; [14]): 0.106 | Percentage, DC 0.1% + fat (A375M; [15]): 0.662 | Average, DC 0.1% (A375M; [16]): 0.064 | A375M (readings), DC 0.1% (A375M; [17]): 0.066 and 0.063 | Actual, DC 0.1% (A375M; [17]): 0.066 and 0.063 | A375M (readings), DC 0.1% + fat (A375M; [18]): 0.456 and 0.382 and 0.365 | Actual, DC 0.1% + fat (A375M; [18]): 0.456 and 0.382 and 0.365 | Average, DC 0.1% + fat (A375M; [19]): 0.401 | Percentage, DC 0.1% (WM266; [14]): 0.113 | Percentage, DC 0.1% + fat (WM266; [15]): 0.539 | Average, DC 0.1% (WM266; [16]): 0.063 | Actual, DC 0.1% (WM266; [17]): 0.07 and 0.061 and 0.058 | WM266 (readings), DC 0.1% (WM266; [17]): 0.07 and 0.061 and 0.058 | Actual, DC 0.1% + fat (WM266; [18]): 0.281 and 0.308 and 0.314 | WM266 (readings), DC 0.1% + fat (WM266; [18]): 0.281 and 0.308 and 0.314 | Average, DC 0.1% + fat (WM266; [19]): 0.301 | Size(cm) Post-treatment (lipomas [4]; Lipoma 5, pre-treatment 2.00 × 1.75, 2 treatments (1% DC)): 1.25 cm | Size(cm) Post-treatment (lipomas [4]; Lipoma 6, pre-treatment 2.80, 1 treatment (5% DC)): 0.50 cm | Size(cm) Post-treatment (lipomas [4]; Lipoma 7, pre-treatment 1.00, 1 treatment (1% DC)): Imperceptible | size of injected lipomas (lipomas [4]; after at least one treatment, varied concentrations of deoxycholate): reduced in size | pathology and histology of excised lipoma (lipomas [4]; one patient, 1% DC, removed two days after injection): well defined area of hemorrhage and necrotic fat | histologic changes in epidermis, dermis, adnexal structures [5]: no apparent affect | histologic changes in fat [5]: Marked blurring and dissolution of adipocyte cell membranes
